The results in this text go back to publication PMC6304418, “A Novel Compound Targeting Protease Receptor 1 Activators for the Treatment of Glioblastoma” (Frontiers in Neurology, 2018).

For one data set, the system named is CNS-1 colonies. In words: Colony formation assay. It is filed as cell-based, rat. Particulars: SIXAC 1 μM, 5 days; colonies > 1 mm; control 13.9 ± 1.09; p = 0.033. As to the method: The cells were seeded in 6-well plates at a density of 100 cells/well. After 24 h, fresh medium with 1 μM SIXAC was added. Cells were incubated for 5 days, until colonies were formed. Cells were washed with PBS, stained with […] crystal violet (Sigma-Aldrich, C0075) in absolute ethanol for 20 min and then washed again with PBS and dried for 24 h. Colonies that were bigger than 1 mm were counted using Fiji software ([37]–[40]).

Data set [1] relates to CNS-1 glioma in Lewis rats. In words: In-vivo imaging study (MRI) in CNS-1 GBM rat model. Here is the method:
Adult Lewis rats (270–335 g, Harlan, Jerusalem, Israel) were housed in a standard conditions and fed a standard diet. Water was available ad libitum. Ambient temperature was set to 22°C to 23°C with day/night light control. The protocols of this study were approved by the Sheba Medical Center Committee on the Use and Care of Animals (permit No: 972/15) according to the ARRIVE Guidelines. Maximum efforts were made in order to minimize suffering and pain. The humane endpoints were the inability to rise or ambulate and a severe weight loss (20% of initial body weight).
The rats were anesthetized via IM injection of Ketamine-Xylazine (100 mg/kg, 16 mg/kg, respectively). A midline scalp incision was made, and a 1 mm burr hole was drilled (coordinates 1 mm lateral × 3 mm posterior to the Bregma). Tumor implantation was performed using a 30 gauge needle attached to a 25 μl syringe containing 10 μl of CNS-1 pellet 5 × 10^7cells/ml. The rats were positioned into a stereotactic frame in order to inject the cells at the right corpus striatum 5.5 mm deep in the brain tissue. […] The needle was gently pulled out 1 min after the pump was stopped. The burr hole was then sealed with bone wax and the skin was sutured.
MRI was performed using a clinical interventional 1.5T MR system. The rats were anesthetized and Gd-based contrast agent was injected IP (Gd-DOTA, 0.02 mmol/kg, Dotarem, Guerbert). MRI sequences included contrast enhanced T1-weighted MRI for depiction of the tumor, T2-weighted MRI for depiction of edema and gradient-echo MRI for depiction of possible hemorrhages. The first MRI scan was used to rank the tumors into three categories based on the size evaluation in order to form groups with a similar distribution of initial tumor size. Regions of interest (ROIs) were plotted over enhanced T1 and T2 weighted MR images. The volume of the tumors, calculated from the T1-weighted images, was then subtracted from the enhancing volume, calculated from the T2-weighted images, in order to determine the volume of surrounding edema.
The animals were implanted with osmotic pumps attached to brain infusion tube (Alzet, Cupertino, CA, USA). Implantation was performed 5 days after tumor inoculation. […]
Rats were allocated to three groups. […] 7 days following induction of treatment (day 12) a follow-up MRI imaging (2nd) was performed and the size of the tumor and edema surrounding the tumor were analyzed by standard ROI manual techniques as described above. In order to eliminate the effect of initial tumor and edema sizes variance, the tumor and edema sizes increase were calculated by using the ratio of the 2nd MRI scan divided by the 1st MRI scan ([41], [42]).

A further data set has as its system U87 glioma cells. Kind of data set: U87 glioma cell proliferation (XTT). The class given is cell-based, human. Particulars: 72 h. Here is the method:
CNS-1, C6, and U87 rat and human glioma cells were grown in Dulbecco's modified Eagle's medium (DMEM; Bet Haemek, Biological Industries, Israel) supplemented with 10% fetal bovine serum (Bet Haemek, Biological Industries, Israel) and 1% penicillin and streptomycin in a 5% CO2-humidified atmosphere.
Cell proliferation was evaluated using a 2.3-Bis-(2-methoxy-4-nitro-5-sulfophenyl)-2H-tetrazolium-5-carboxyanilide salt (XTT)-based cell proliferation assay kit (Bet Haemek, Biological Industries, Israel). U87 cells were seeded in 96-well plates (5 × 10^3 cells/well) and incubated for 24 h. The medium was then removed, the tested molecules (10^−13-10^−4 M final concentration) were added in FCS-free medium and introduced to the cells for 72 h. After choosing SIXAC as the leading molecule, it was tested in a similar way in CNS-1 cells (SIXAC 1 μM final concentration). XTT solution (50 μl) was added to each well and incubated for 3 h at 37°C. The optical density (OD) of each well was recorded at 450 and 630 nm in a microplate reader (Infinite M200, Tecan, Durham, NC, USA). Cell viability was expressed as the percentage (ODtest–ODblank)/(ODcontrol–ODblank), where ODtest is the optical density of cells exposed to SIXAC treatment, ODcontrol is the optical density of the control sample, and ODblank is the optical density of wells without glioma cells.
A general note: Tetrazolium dyes change colour on reduction, which living cells bring about.

The test system of data set [2] is human normal pooled citrated plasma. Kind of data set: Coagulation in plasma (PT, aPTT, TT). As to the method: HemosIL normal control (Instrumentation Laboratory), was used as human normal pooled citrated plasma from healthy donors. The lyophilized human plasma containing buffer, stabilizers and preservatives, was reconstituted using standard laboratory methods. The plasma was exposed in-vitro to indicated concentrations of SIXAC for 10 min. Next, prothrombin time (PT), activated partial thromboplastin time (aPTT) and thrombin time (TT) were measured. All tests were carried out with an ACLTOP® 500 autoanalyzerat in the Sheba medical center (Israel) MegaLab according to standard operating procedures (SOP). The results represent an average of 5 measures.

Structures are written as SMILES. Entries after “also recorded” stand apart in the source; their conditions may differ. Where a SMILES comes first, the peptide text is derived from it. The star is where a group is joined. Tos = Cc1ccc(S(=O)(=O)*)cc1; CH2Cl = ClC*

Regarding `Cc1ccc(S(=O)(=O)N[C@@H](C)C(=O)N[C@H](C(=O)N[C@@H](CC(C)C)C(=O)N[C@@H](CC(=O)O)C(=O)N2CCC[C@H]2C(=O)N[C@@H](CCCNC(=N)N)C(=O)CCl)[C@@H](C)O)cc1` [SIXAC] (Tos-ATLDPR-CH2Cl), the “number of formed colonies” value in the data set on CNS-1 colonies stood at 10.5 ± 1.06. Further, in data set [1] (2μg/kg/day vs. 0.2μg/kg/day and saline), the “tumor enhancement means of ratios, moderate dose vs. low dose and saline (in words)” value was “non-significant reduction in tumor enhancement means of ratios”. Also, the “edema means of ratios, moderate dose vs. low dose and saline (in words)” value in data set [1] (2μg/kg/day vs. 0.2μg/kg/day and saline, p < 0.05) is recorded as “Significant reduction in edema means of ratios”. Also, the “edema volume ratio (2nd/1st MRI, T2)” value in data set [1] (2μg/kg/day, intracranial Alzet pump, 7 days, day 12/day 5, n = 9, control 8.8 ± 1.9, p < 0.04 (t-test)) is reported as 4.9 ± 1. The “tumor volume ratio (2nd/1st MRI, enhancing lesions, T1)” value in data set [1] (2μg/kg/day, intracranial Alzet pump, 7 days, day 12/day 5, n = 9, control 12.2 ± 2.4, p = 0.16 (t-test)) is on record as 9.8 ± 1.2. In the data set on U87 glioma cells (10^−5M, FCS-free medium, mean ± SEM, 3AACK vs. 6AACK p < 0.035), the “U87 proliferation rate ("inhibit proliferation at a rate of")” value was found to be 0.2 ± 0.34. Moreover, the “U87 proliferation inhibition, ranking among the molecules” value with U87 glioma cells (10^−13-10^−4 M, Figure 1D) is recorded as “found to inhibit the U87 proliferation rate the most”. In data set [2] (10^−4M vs. IC50 for thrombin inhibition), the “margin of coagulation-affecting concentration over IC50 for thrombin inhibition” value is on record as “at least 4.5 orders of magnitude”. Moreover, the “concentration at which coagulation tests (PT, aPTT, TT) are affected” value in data set [2] (human plasma exposed 10 min, affected only at this concentration, average of 5 measures) is reported as 10^−4 M. In addition, the “effect on PT, aPTT and TT (in words)” value in data set [2] (human plasma exposed 10 min, concentrations equivalent to those used to treat animals, average of 5 measures) is “no clinical significant effects; also recorded: The effect was minimal for the therapeutic dosages used in the experiment”.
